Measured values taken from patent US20060068503A1, “Solid support membranes for ion channel arrays and sensors: application ro rapid screening of pharmacological compounds” (priority 2004, published 2006).

Legend:
Kv1.5 K+ channel = molecular target: T1, Kv1.5 K+ channel (Homo sapiens, UniProt P22460); assay: Whole cell patch clamp of dexamethasone-induced Kv1.5-transfected Ltk-cells; assay type: cell-based; conditions: Ltk-cells overexpressing Kv1.5, whole cell patch clamp
T1 construct: expressed in transfected cells; host or cells: Ltk- cells (mouse fibroblasts), stably transfected, expression induced with 2 uM dexamethasone
Method: Whole-cell Kv1.5 current recordings are made at room temperature via the gigaseal patch clamp technique using an Axopatch-1D amplifier (Axon Instruments, Foster City, Calif.). Ltk-cells overexpressing Kv1.5 channels are cultured for 24-72 hr, induced to express Kv1.5 channels by 24 hr incubation with 2 μM dexamethasone prior to use for patch clamp studies. Small, spherical cells approximately 10 microns in diameter are used for all patch recordings. Electrodes are made from TW-150F glass capillary tubes (World Precision Instruments, New Haven Conn.) and had resistances of 1.5-3.0 megohms when filled with internal solution containing: 110 Mm KCl, 5 mM K2ATP, 5 mM K4BAPTA, 1 mM MgCl2 and 10 mM HEPES, adjusted to pH 7.2 with KOH. The external solution contained: 130 mM NaCl, 4 mM KCl, 1.8 mM CaCl2 1 mM MgCl2, 10 mM HEPES, 10 mM glucose, adjusted to pH 7.4 with NaOH. Series resistance is compensated following rupture of the seal. Currents are sampled at 1 KHZ and filtered at 500 Hz. Cells are pulsed to +60 mV every 5 sec from a holding potential of −70 mV in 20 mV increments. […] Whole cell patch data are analyzed using Clampfit 8.0 in pCLAMP software (Axon Instruments). IC50 values for compounds are determined by nonlinear regression analysis using GraphPad Prism software (San Diego, Calif.).

[1] = molecular target: T2, Kv1.5 K+ channels reconstituted on the SSM (Homo sapiens, UniProt P22460); assay: Kv1.5 K+ channel current on solid supported membrane (SSM); assay type: biochemical; conditions: for IC50: SSM-reconstituted channels, -80 mV, n=3, read-out: half-maximal inhibition of Kv1.5 K+ channel current, IC50
T2 construct: expressed in transfected cells; host or cells: Ltk- cells (mouse fibroblasts), stably transfected, expression induced with 2 uM dexamethasone
Method: An Ltk-cell line (mouse fibroblast cells) stably overexpressing Kv1.5 K+ channels under control of a dexamethasone promoter is used to prepare plasma membrane vesicles. Expression of Kv1.5 is induced in Ltk-cells by addition of dexamethasone to the medium. The dexamethasone-specific induction of channel expression is totally specific for Kv1.5 channels. Cells are grown in 2 μM dexamethasone for 24 hr prior to use. The cells are centrifuged for 5 min at 1000 rpm and resuspended in 1.0 ml of 20 mM HEPES (pH 7.5), 20 mM NaCl, 100 mM KCl, 1.0 mM EDTA, 0.02% NaN3, 1 mM PMSF, 10 μg/μl leupeptin, and 50 μg/μl aprotinin. After freeze-thawing twice, the membrane fragments/vesicles are collected following centrifugation at 12,000 g for 20 min at 4 °C. Membrane vesicles are also prepared from uninduced Ltk-cells (no dexamethasone incubation) transfected with Kv1.5 K+ channel cDNA and from non-transfected Lkt-cells.
Glass slides are first plated with chromium (5 nm), and then gold (150 nm). The slide is then immersed in ethanol containing 1% octadecanethiol (w/w) for 48 hr to attach alkyl thiol groups. After cleaning the gold plated slide with anhydrous isopropanol, epoxy resin is applied to the surface of the thiol-treated gold. Defects in the epoxy resin coating are used as the experimental chamber after coating the device with a lipid monolayer. […]
Membrane vesicles containing Kv1.5 K+ channels are added to the lipid coated wells containing 125 mM KCl/10 mM K-HEPES pH 7.4. Currents are measured with an HS-2A headstage and Gene Clamp 500 amplifier (Axon Instruments). […] Voltages ranging from −80 mV to +70 mV are applied in 10 mV increments for 200 msec, and electrical currents are recorded. […] Cation selectivity is measured by removing K+ from the medium and replacing it with Na+. Currents are first measured with K+ present. SSMs are then washed with K+-free, Na+-containing medium and currents were measured with Na+ present. Currents with K+ present are re-measured. […]

T2 sequence (P22460 whole entry): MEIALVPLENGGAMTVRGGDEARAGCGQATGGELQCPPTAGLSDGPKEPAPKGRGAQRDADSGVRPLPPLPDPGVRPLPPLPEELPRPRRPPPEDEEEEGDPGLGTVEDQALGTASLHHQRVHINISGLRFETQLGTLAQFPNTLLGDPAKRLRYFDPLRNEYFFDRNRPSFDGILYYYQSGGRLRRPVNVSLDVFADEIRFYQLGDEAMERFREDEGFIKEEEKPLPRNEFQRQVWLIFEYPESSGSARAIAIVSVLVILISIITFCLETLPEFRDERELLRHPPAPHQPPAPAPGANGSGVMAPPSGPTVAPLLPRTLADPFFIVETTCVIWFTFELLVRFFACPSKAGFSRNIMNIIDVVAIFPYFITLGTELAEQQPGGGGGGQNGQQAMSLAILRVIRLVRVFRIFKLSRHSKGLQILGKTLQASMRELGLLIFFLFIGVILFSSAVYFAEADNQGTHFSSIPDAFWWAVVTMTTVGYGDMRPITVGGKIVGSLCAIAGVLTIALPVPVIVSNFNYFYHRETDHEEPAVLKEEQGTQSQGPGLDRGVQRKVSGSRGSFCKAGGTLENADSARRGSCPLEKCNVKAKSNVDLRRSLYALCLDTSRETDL
T1 sequence (P22460 whole entry): as above

| IC50 (Kv1.5 K+ channel) [nM] | IC50 [1] [nM] | effect on current at varying holding potentials ([1]; 100 nM, holding potentials outside the range of ±20 mV) | SMILES |
| --- | --- | --- | --- |
| 137 | 265 |  | COc1ccc(CCN2C(=O)CSC2c2ccc(C)c(C)c2)cc1 (centres unmarked) [Compound B, 2-(3,4-dimethyphenyl)-3-[2-(4-methoxyphenyl)ethyl]-thiazolidin-4-one] |
| 170 | 218 | current decreased | CCc1ccc(S(=O)(=O)N[C@H]2c3cc(NC(=O)c4cccc(OC)c4)ccc3C[C@@H]2O)cc1 [Compound A, N-[(2S,3S)-3-[[(4-ethylphenyl)sulfonyl]amino]-2,3-dihydro-2-hydroxy-1H-inden-5yl]-3-methoxybenzamide] |
